{"source": "patent US20250152616A1", "about": "“COMPOSITIONS FOR AND METHODS OF TREATING, PREVENTING, AND/OR MITIGATING PAIN” (Duke University, priority 2022, published 2025)", "key": {"ADORA2B": {"target": "T1, ADORA2B (Mus musculus, UniProt Q60614)", "T1 construct": "endogenous in cells; host or cells: primary mouse bone marrow mesenchymal stromal cells (BM-MSCs), passage 1-2", "T1 sequence (Q60614 1-332)": "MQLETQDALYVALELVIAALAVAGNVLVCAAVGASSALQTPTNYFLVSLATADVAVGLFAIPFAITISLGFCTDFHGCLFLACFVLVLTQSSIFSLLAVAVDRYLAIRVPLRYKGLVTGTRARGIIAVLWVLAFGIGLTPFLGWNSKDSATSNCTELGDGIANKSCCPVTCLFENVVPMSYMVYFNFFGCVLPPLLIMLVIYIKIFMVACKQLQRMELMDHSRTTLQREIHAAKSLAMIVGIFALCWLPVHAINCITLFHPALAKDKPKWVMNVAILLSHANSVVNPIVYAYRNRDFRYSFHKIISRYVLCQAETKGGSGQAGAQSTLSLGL", "assay": "RT-qPCR of osteogenic genes in BM-MSCs with ADORA2B inhibitor", "assay_type": "cell-based", "details": "BM-MSCs with adenosine 30 μg/mL plus PSB 603, 14 days, vs vehicle DMSO", "experimental": "MSCs were isolated as previously described with some modifications (Shih Y B, et al. (2019) Sci Adv. 5:eaax1387). Briefly, the femurs, tibiae, vertebrae of mice were harvested, crushed with pestle and mortar in harvest buffer (1% v/v FBS in PBS) to release bone marrow (BM) tissue, filtered through a 40-μm cell strainer, and centrifuged at 200 rcf. Cells were seeded in a 24-well plate at a cell density of 1 million cells/cm^2 in growth media (GM) containing α-MEM, FBS (10% v/v, ThermoFisher, Cat #16000044), penicillin/streptomycin (10000 U/mL; 1% v/v) and cultured in humidified incubator (37° C., 5% CO2). The medium was replaced after 3 days and further cultured for 6 days before passage. […]\nCells, DRG, or bone/marrow tissues were analyzed for gene expression by quantitative real-time polymerase chain reaction (RT-qPCR). […] Quantitative PCR was performed with iTaq Universal SYBR green reagent (Bio-Rad, Cat #1725124) with denaturation at 95° C. for 30 sec for one cycle, and amplification (denaturation+annealing/extension) at 95° C. for 5 sec and 60° C. for 30 sec for 40 cycles on a polymerase chain reaction (PCR) cycler (Bio-Rad, CFX96 Touch). […]\nThe expression level of each target gene was normalized to the housekeeping gene and to their respective controls and presented as fold change expressed as 2^−ΔΔCt values. […]"}, "ADORA1": {"target": "T2, ADORA1 (Mus musculus, UniProt Q60612)", "T2 construct": "endogenous in cells; host or cells: primary dissociated mouse L3-L4 DRG neurons", "T2 sequence (Q60612 1-326)": "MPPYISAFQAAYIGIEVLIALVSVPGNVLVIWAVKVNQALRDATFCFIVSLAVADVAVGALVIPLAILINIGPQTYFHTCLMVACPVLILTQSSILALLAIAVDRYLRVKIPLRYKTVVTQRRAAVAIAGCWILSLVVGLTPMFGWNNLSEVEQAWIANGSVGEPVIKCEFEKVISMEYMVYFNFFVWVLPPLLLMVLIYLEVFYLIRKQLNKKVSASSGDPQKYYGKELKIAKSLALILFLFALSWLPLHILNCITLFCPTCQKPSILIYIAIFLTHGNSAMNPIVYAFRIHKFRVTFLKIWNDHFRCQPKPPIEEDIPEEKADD", "assay": "Fura-2 calcium imaging of NGF-exposed, adenosine-treated DRG neurons with ADORA1 inhibitor", "assay_type": "cell-based", "details": "NGF-exposed DRG treated with adenosine 5 μM plus DPCPX 100 nM; capsaicin 100 nM; vehicle DMSO", "quoted_text": "DRG were isolated from mice using a modified version of the previously described protocol (Perner C, et al. (2021) STAR Protoc. 2:100333). Briefly, mice were euthanized and dosed in 70% ethanol to prevent fur contamination. Mice were positioned prone, and an incision was made along the spine from the neck to the base of the tail. Under a dissecting microscope, the surrounding soft tissue of the spinal column was removed from the dorsal side by Friedman-Pearson Rongeurs (Fine Science Tools, Foster City, CA, Cat #16021-14) from the mid thoracic region to the lumbosacral joint. The vertebral bone surrounding the DRG was gently crushed and removed with rongeurs exposing the spinal cord. The DRG were carefully extracted near the foramen between the vertebral levels. L3 and L4 DRG were collected for analyses. […] For cell culture experiments, collected DRG were digested in digestion solution comprised of collagenase type II (Worthington, Lakewood, NJ, Cat #LS004176) and dispase (1.5 mg/mL each) dissolved in DMEM/F12. DRG were agitated in a digestion solution on an orbital shaker at 60 rpm and 37° C. for 20 minutes and repeated thrice with fresh digestion solution. […]"}, "TRPV1": {"system": "TRPV1", "assay": "Immunofluorescence staining of TRPV1 in cultured DRG neurons", "assay_type": "cell-based, mouse", "details": "NGF 200 ng/mL, 1 day incubation, DRG neurons from unfractured mice", "experimental": "To culture DRG neurons, culture media composed of Neurobasal-A medium (ThermoFisher, Cat #10888022), 2% B27 supplement (ThermoFisher, Cat #17504044), 1% glutamax (ThermoFisher, Cat #35050061), and penicillin/streptomycin (10000 U/mL, 1% v/v, ThermoFisher, Cat #15140122) was used. Cells were treated with or without NGF (200 ng/mL) for 24 hr prior to immunofluorescence imaging. Cells were exposed to NGF (200 ng/mL) for 24 hr (long-term) for calcium and FluoVolt imaging. Cells were cultured on custom-made glass surface with silicone wells. Briefly, cover slides (#1 thickness) were cleaned by agitating in 0.5 M NaOH for 30 minutes followed by subsequent rinsing in dH2O followed by 100% ethanol and air-dried. Wells were produced in cured polydimethylsiloxane (PDMS, Sylgard 184, Ellsworth Adhesives, Germantown, WI) with a 8-mm biopsy punch and bonding to the cover slides. […]\nSections were heated for antigen retrieval in citrate buffer (MilliporeSigma, Cat #C9999) for 20 min, permeabilized in 0.1% Triton X-100 in PBS for 10 min, followed by blocking for 1 hr in blocking solution comprised of 3% BSA, 0.26 M glycine, 5% normal donkey serum in Tris buffered saline (TBS) at room temperature. […] Fluorescence intensity was quantified by ImageJ software and presented in arbitrary units."}, "dissociated DRG neurons [1]": {"system": "dissociated DRG neurons", "assay": "FluoVolt membrane potential imaging of dissociated DRG neurons", "assay_type": "cell-based, mouse", "details": "NGF exposure 1 day; capsaicin stimulation", "source_text": "(§1) DRG were isolated from mice using a modified version of the previously described protocol (Perner C, et al. (2021) STAR Protoc. 2:100333). Briefly, mice were euthanized and dosed in 70% ethanol to prevent fur contamination. Mice were positioned prone, and an incision was made along the spine from the neck to the base of the tail. Under a dissecting microscope, the surrounding soft tissue of the spinal column was removed from the dorsal side by Friedman-Pearson Rongeurs (Fine Science Tools, Foster City, CA, Cat #16021-14) from the mid thoracic region to the lumbosacral joint. The vertebral bone surrounding the DRG was gently crushed and removed with rongeurs exposing the spinal cord. The DRG were carefully extracted near the foramen between the vertebral levels. L3 and L4 DRG were collected for analyses. Dissected DRG were placed directly into ice-cold DMEM-F12 medium (ThermoFisher, Cat #11320033) for in vitro culture, Trizol (ThermoFisher, Cat #15596018) for PCR analyses, or 4% PFA for histology. For cell culture experiments, collected DRG were digested in digestion solution comprised of collagenase type II (Worthington, Lakewood, NJ, Cat #LS004176) and dispase (1.5 mg/mL each) dissolved in DMEM/F12. […]\nDRG neuron potential changes were evaluated with FluoVolt, a voltage sensitive indicator dye (ThermoFisher, Cat #F10488). […]"}, "dissociated DRG neurons [2]": {"system": "dissociated DRG neurons", "assay": "Fura-2 calcium imaging of dissociated DRG neurons stimulated with capsaicin", "assay_type": "cell-based, mouse", "details": "NGF 200 ng/mL 24 hr vs no NGF; capsaicin 100 nM", "source_text": "as §1, with “DMEM/F12. DRG were agitated in a digestion solution on an orbital shaker at 60 rpm and 37° C. for 20 minutes and repeated thrice with fresh digestion solution. Next, the digestion solution was replaced with trypsin-EDTA (0.025%) in DMEM/F12 and incubated for an additional 15 min to disrupt the remaining cell-to-cell adhesions. The solution was then replaced with DMEM/F12 and FBS (1:3) to neutralize trypsin. DRG were triturated to create a cell suspension and gently layered onto 15% bovine serum albumin (BSA) solution without mixing and centrifuged for 6 min at 280 g with minimal acceleration and no deceleration to separate non-neuronal cells and debris (Owen D E, et al. (2012) Methods Mol Biol. 846:179-187).” for “DMEM/F12.”\nIntracellular cytosolic Ca^2+ was evaluated by Fura-2 loaded DRG neurons (Khomula E V, et al. (2019) J Neurosci. 39:7061-7073). […]"}}}
{"molecule": "CCCn1c(=O)[nH]c2nc(-c3ccc(S(=O)(=O)N4CCN(c5ccc(Cl)cc5)CC4)cc3)[nH]c2c1=O", "note": "[PSB 603]", "values": [{"measurement": "adenosine mediated upregulation of osteogenic markers (Runx2, Sp7, Ibsp)", "setting": "ADORA2B", "result": "attenuated"}]}
{"molecule": "CCCn1c(=O)c2[nH]c(C3CCCC3)nc2n(CCC)c1=O", "note": "[DPCPX, 8-Cyclopentyl-1,3-dipropylxanthine]", "values": [{"measurement": "average and peak fluorescence intensity vs vehicle control lacking DPCPX", "setting": "ADORA1", "result": "increase"}]}
{"molecule": "NGF: nerve growth factor, used as model molecule for in vitro sensitization of DRG neurons", "values": [{"measurement": "TRPV1 receptor expression in TUBB3-positive neurons", "setting": "TRPV1", "result": "significantly increased"}, {"measurement": "membrane potential of DRG neurons (FluoVolt)", "setting": "dissociated DRG neurons [1]", "result": "increased"}, {"measurement": "functional responses of DRG neurons to capsaicin (Fura-2 intensity)", "setting": "dissociated DRG neurons [2]", "result": "increased"}]}
